Several values for one entry are separate records, joined by “and”; a condition that tells them apart may be missing. Identical values can stand only once. Like-named read-outs stand apart in the source and are kept apart here.
What was measured:
[1] = target: T1, SARS-CoV-2 M^pro (Severe acute respiratory syndrome coronavirus 2, UniProt P0DTD1); conditions: for fold decrease in IC50, initial vs final inhibition value: t=2 minutes vs 2-hour preincubation
Method: To validate the computational leads, the remaining compounds were subjected to a primary SARS-CoV-2 M^pro activity inhibition screen in which they were pre-incubated with the enzyme and the initial velocities of cleavage of a FRET peptide were determined. The Z′-factor of the assay was 0.65, and the distribution of z-scores of compounds and positive (no inhibitor) and negative (no enzyme) controls is shown in FIG. 20.
For each compound, IC50 curves were generated using a continuous fluorescence assay. Reaction volumes of 40 μL were used in Corning half area 96-well plates. […] All the reactions were done in triplicate. For IC50 determination, the initial rate data was used, and the kinetic values were obtained directly from nonlinear regression of substrate-velocity curves in the presence of various concentrations of the inhibitor. The equation Y=(Top-Bottom)/(1+1{circumflex over (0)}(X-log IC50))+Bottom; X=log(concentration) and Y=binding; was used in the nonlinear regression.
(§1) Similar fluorescence assay was used to determine the time dependent IC50 curves. The plate with 10 μL of enzyme (1 μM) and 10 μL of the appropriate inhibitor dilution in 20 mM Tris-HCl, pH 7.35 with 1.25% DMSO was incubated at room temperature on a titer plate shaker with varying enzyme pre-incubation times (2, 15, 30, 45, 60 and 120 min) and centrifuged briefly at 1000 g just before incubation time ends. […] The equation Y=(Top-Bottom)/(1+1{circumflex over (0)}(X-log IC50))+Bottom; X=log(concentration) and Y=binding; was used in the nonlinear regression.

[2] = test system: Vero E6 (CRL-1586) cells; experiment: Cytotoxicity and cytopathic effect assay; assay type: cell-based; conditions: concentrations up to 10 μM, with or without PZ
Method: The in vitro antiviral activity of all four hits was evaluated in Vero E6 (CRL-1586) cells. The antiviral properties of the inhibitors were assessed in the absence and presence of an efflux pump inhibitor (CP-100356, labeled PZ). […] Because of high cytotoxic effects of these compounds at high doses, the high doses were removed in the EC50 curve fit for these compounds.
Briefly, on the day of infection, 5×10^3 Vero E6 cells were seeded in 20 μL cell culture medium (containing 5% FBS) in 384-well plates, using a MultiFlo FX multi-mode microplate dispenser (BioTek). The same day, compounds were added to the cells (25 μL/well, in EMEM with 5% FBS, 1% P/S), with 2 wells per concentration. After 2 h of compound preincubation, 5 μL of virus was added to the wells using a multi-channel pipette to MOI=0.1. Viruses were diluted in EMEM with 5% FBS, 1% P/S and was kept on ice until cells were ready for infection. Eight virus-only control wells were included as the […]. The virus plus cells and the cells were used to normalize the data set. After 72 h, 30 μL of CellTiter-Glo (Promega) was dispensed into each well by a MultiFlo FX multi-mode microplate dispenser. After a 10 min incubation at room temperature, the plates were loaded into a Perkin EnVision multi-mode microplate reader to read luminescence.

[3] = target: T1, SARS-CoV-2 M^pro; conditions: for Ki / kinact (10^−3 s^−1): saturation profile, with SEM
Method: as §1

[4] = read-out: IC50 (μM) - 2 min, 2 min co-incubation of enzyme and inhibitor, with standard deviation
[5] = read-out: IC50 (μM) - 120 min, 120 min pre-incubation, with standard deviation

Compound | IC50 [1, 4] | IC50 [1, 5] [µM] | fold decrease in IC50, initial vs final inhibition value [1] [fold] | cytotoxic effect [2] | kinact/KI ([3]; inactivation efficiency) [M⁻¹ s⁻¹] | Ki [3] | kinact (10^−3 s^−1) [3] | IC50 fold lower than the IC50s of the other compounds ([1]; preliminary analysis, 2 min) | IC50 ([1]; read-out: IC50 after a 2-hour preincubation, 2-hour preincubation) [µM] | kinact/KI fold higher relative to the other compounds [3] | kinact/KI (M^−1 s^−1) ([3]; inactivation efficiency)
O=C(CCl)N1CCN(Cc2cccc3ccccc23)CC1 [Compound A] | 16.3 ± 1.3 µM | 0.3 ± 0.03 | 54 | less than other compounds | 441 ± 297 | 11.5 µM | 5.1 ± 0.5 10^−3 s^−1 | – | – | – | –
O=C(CCl)N1CCN(Cc2cccc(Cl)c2)CC1 [Compound B] | 12.8 ± 5.1 µM | 0.4 ± 0.13 | 32 | – | 697 ± 697 | 5.97 µM and 6 µM | 4.2 ± 0.8 10^−3 s^−1 | – | – | – | –
COc1ccc(C2CC(c3ccccc3)=NN2C(=O)CCl)cc1OC (centres unmarked) [Compound C] | 2.39 µM and 2.4 µM | – | 15 | – | – | 5.27 µM and 5.3 µM | 23.5 ± 2.6 10^−3 s^−1 | at least 5 fold | 0.16 | at least 4 fold | 4,460 M^−1 s^−1
CC(C)CC1CN(C(=O)CCl)CCN1Cc1cccc(Cl)c1 (centres unmarked) [D] | 16 ± 0.9 µM | 0.41 ± 0.06 | 39 | – | – | ≥ 62.5 µM | ≥16.6 10^−3 s^−1 | – | – | – | –
